Experimental data published in patent US20240376119A1, “SPIRO COMPOUND AND USE THEREOF” (CSPC Zhongqi Pharmaceutical Technology (Shijiazhuang) Co., …, priority 2021, published 2024).

Experiments:
[1] = target: SHP2 (Homo sapiens (Human), UniProt Q06124); assay: Assay for the inhibitory effect on the SHP2 enzyme (DiFMUP substrate, fluorescence); format: biochemical; conditions: SHP2 activated with SHP-2 activated peptide; DiFMUP 10 μM; read-out: Enzymatic Effect (IC50 on SHP2)
Procedure: 1× Assay buffer was prepared. A compound to be tested was diluted with DMSO solvent to a stock concentration of 10 mM. The compound to be tested was first diluted to an intermediate concentration of 1000 μM and then further diluted in a 3-fold gradient using DMSO. Therefore, the intermediate gradient dilution concentration of the compound to be tested was: 1000 μM, 3-fold dilution, 11 gradients. 100 nL of each concentration of the compound in the 384-well LDV echo plate was transferred to a new 384-well ELISA plate (assay plate) (corning, Cat #4514) by the Echo550 instrument. The final concentration of the compound to be tested was 10 μM, 3-fold dilution, 11 gradients in duplicate after 10 μL of the reaction reagent was added. The final DMSO concentration was 1%. For both negative and positive control wells, 100 nL DMSO would be transferred.
A mixed liquor of 2× working SHP2 reagent (0.4 nM) and 0.5 μM SHP-2 activated peptide (BPS bioscience #79319-2) was prepared with 1× enzyme buffer. After the above-mixed liquor was incubated at 25° C. for 60 minutes, 5 μL of activated SHP2 kinase solution was transferred with a pipettor to the compound wells and the Max control wells (Corning, #4514) of the plate. Then 5 μL of 1× kinase buffer was transferred to the Min control wells. The plate was centrifuged at 1000 rpm for 30 seconds, sealed, and incubated in a 25° C. constant-temperature incubator for 30 minutes. A substrate solution of DiFMUP (#D6567, Invitrogen™) was prepared with 1× kinase buffer, and its concentration should be 2 times as the final concentration of the assay (DiFMUP final concentration: 10 μM). 5 μL of the prepared substrate solution was transferred with an electric pipettor into each well of the ELISA plate to start the reaction. The plate was centrifuged at 1000 rpm for 30 seconds, sealed, and incubated in a 25° C. constant-temperature incubator for 60 minutes. Read the plate at the excitation/emission wavelength of 358/455 nm after the ELISA plate was placed on the Spark machine.
The RLU values were collected from Spark and the inhibition rate was calculated with the RLU values. Inhibition rate=(maximum value-sample RLU)/(maximum value-minimum value)*100. “Minimum value” was referred to the RLU of the enzyme-free control, and “maximum value” was referred to the RLU of the DMSO control. The data were fit by using the XLFit Excel module (version 5.4.0.8) to obtain IC50 values, and the results are shown in Table 1.

[2] = test system: human acute myeloid leukemia MV-4-11 cells; assay: In vitro inhibitory effect on the proliferation of MV-4-11 cells (MTT, 72 h); format: cell-based; conditions: MV4-11, 72 hours exposure
Procedure: The human acute myeloid leukemia MV-4-11 cells used in the assay were purchased from Shanghai Institutes for Biological Sciences, Chinese Academy of Sciences. The complete culture medium required for cell culture was IMDM (GIBCO Company), which was supplemented with 10% fetal bovine serum (GIBCO Company). Cells were cultured in a 37° C., 5% CO2 incubator. The reagents used in the assay included dimethyl sulfoxide (purchased from Tianjin Kemiou Chemical Reagent Co., Ltd.), and MTT (Shanghai Topbiochem Co., Ltd., CAS. NO. 298-93-1). The test substance was sealed and stored at 4° C.
Dimethyl sulfoxide was used as the solvent to fully dissolve the test substance and prepare a stock solution with a concentration of 5×10^−2 mol/L. The stock solution was stored at −20° C. A complete culture medium was used as the diluent, and the test substance was diluted to different concentrations in a gradient for later use. 100 µL/well (2×10^4 cells/well) of a suspension of MV-4-11 cells in the complete culture medium was added to a 96-well culture plate. 100 μL/well of the corresponding test substances at different concentrations were added respectively. 8 concentrations were set for each test substance, and 3 duplicate wells were set for each concentration. The plate was cultured in a 37° C., 5% CO2 incubator. 20 μL/well of MTT was added after 72 hours of exposure to the test substances. The plate was cultured for 4 hours in a 37° C., 5% CO2 incubator. The supernatant was discarded, and 150 μL/well of dimethyl sulfoxide was added. The plate contents were oscillated and mixed evenly. The microplate reader was used to detect the OD value at a wavelength of 550 nm. The well only containing the cell suspension without test substance was a control well, and the well only containing the complete culture medium was a blank well. The inhibition rate of the cell growth was calculated with the following formula: • Inhibition rate=(ODcontrol well-ODtest well)/(ODcontrol well-ODblank well)*100%. According to the inhibition rates at each concentration, SPSS software was used to calculate the half inhibitory concentration IC50 value.

[3] = Mouse tolerance assay (once daily for 7 consecutive days); format: in vivo; conditions: female ICR mice
Procedure: • Assay animals: ICR mice, female, 5 weeks old • Solvent: 2% DMSO+98% (0.5% MC), treated by sufficient vortex and sonicated to obtain a uniform suspension • Assay method: Female ICR mice were divided into 4 groups according to weight balance, with 5 mice in each group. The administration doses were 50 mg/kg and 200 mg/kg respectively. The compound was administrated once daily for 7 consecutive days.

[4] = target: hERG channel (Homo sapiens (Human), UniProt Q12809); assay: hERG assay, manual whole-cell patch clamp in CHO-K1 cell line stably expressing the hERG channel; format: cell-based
Sequence of hERG channel (Q12809 whole entry): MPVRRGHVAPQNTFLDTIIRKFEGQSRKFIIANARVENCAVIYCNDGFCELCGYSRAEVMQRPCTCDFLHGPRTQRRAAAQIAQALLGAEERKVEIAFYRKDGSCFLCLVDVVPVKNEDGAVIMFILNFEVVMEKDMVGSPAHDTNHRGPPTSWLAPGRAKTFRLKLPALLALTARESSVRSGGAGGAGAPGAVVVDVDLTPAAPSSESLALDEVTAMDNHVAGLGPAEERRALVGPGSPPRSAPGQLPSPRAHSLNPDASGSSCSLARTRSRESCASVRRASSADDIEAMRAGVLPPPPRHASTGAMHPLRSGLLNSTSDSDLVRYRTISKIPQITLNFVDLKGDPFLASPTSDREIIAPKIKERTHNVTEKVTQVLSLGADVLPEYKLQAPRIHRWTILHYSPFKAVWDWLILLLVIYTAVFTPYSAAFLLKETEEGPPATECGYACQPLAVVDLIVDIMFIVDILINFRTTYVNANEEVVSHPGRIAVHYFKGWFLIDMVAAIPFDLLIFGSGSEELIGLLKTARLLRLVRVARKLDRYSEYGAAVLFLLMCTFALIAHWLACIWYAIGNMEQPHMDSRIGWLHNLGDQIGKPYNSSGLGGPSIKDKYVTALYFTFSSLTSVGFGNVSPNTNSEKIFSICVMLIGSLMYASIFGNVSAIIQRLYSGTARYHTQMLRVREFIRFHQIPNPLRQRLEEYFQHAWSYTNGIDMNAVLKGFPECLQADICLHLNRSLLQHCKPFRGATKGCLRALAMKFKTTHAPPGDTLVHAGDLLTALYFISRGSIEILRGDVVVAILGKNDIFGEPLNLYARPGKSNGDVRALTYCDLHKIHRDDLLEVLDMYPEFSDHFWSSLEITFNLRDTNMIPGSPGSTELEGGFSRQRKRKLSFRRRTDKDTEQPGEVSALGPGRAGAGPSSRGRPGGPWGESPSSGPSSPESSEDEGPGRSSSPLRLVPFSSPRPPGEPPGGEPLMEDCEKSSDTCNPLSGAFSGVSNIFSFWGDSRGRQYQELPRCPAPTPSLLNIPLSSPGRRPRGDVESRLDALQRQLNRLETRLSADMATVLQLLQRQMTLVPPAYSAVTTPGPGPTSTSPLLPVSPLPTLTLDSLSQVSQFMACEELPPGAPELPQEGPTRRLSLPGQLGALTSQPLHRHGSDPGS
Procedure: This assay included the following aspects: • A manual patch clamp technique was used to record the hERG current in the CHO-K1 cell line stably expressing the hERG channel; • The inhibition rate at each concentration was calculated based on the hERG tail current; • Each compound was tested at 5 concentrations to calculate the IC50 value; • Three cells were tested for each concentration; • One positive control drug was set.
HERG currents were recorded using the whole-cell patch-clamp technique. The cell suspension was added to the cell tank and placed on the upright microscope stage. After the cell adherence, the cells were perfused with extracellular fluid at a flow rate of 1-2 mL/min. The glass microelectrode was drawn in two steps by a micropipette puller, and its resistance value in water was 2-5 MΩ. After establishing the whole-cell recording, the clamp potential was maintained at −80 mV. The hERG tail current was elicited by applying a depolarizing voltage to +60 mV upon the voltage stimulation and then repolarizing to −50 mV. All recordings were made after the current stabilization. Extracellular perfusion administration started from a low concentration, and each concentration lasted for 5-10 minutes until the current was stable, and then proceeded to the next concentration.
The half inhibitory concentration (ICSO) of the test compound was derived from the best fit of the Logistic equation.

[5] = Mouse pharmacokinetic assay (intragastric administration, plasma HPLC-MS/MS); format: in vivo; conditions: ICR mice
Procedure: ICR mice were intragastrically administered with the compound at 10 mg/kg or 20 mg/kg. At different time points (0.25 h, 0.5 h, 1 h, 2 h, 4 h, 8 h, 24 h) after administration, the mice blood was collected from the orbit. The collected whole blood was anticoagulated with heparin sodium and centrifuged at 3000 g to obtain mouse plasma samples. Methanol was added to precipitate proteins. The drug concentration in the mouse plasma after administration was determined by the HPLC-MS/MS method. A drug concentration-time curve was plotted and the pharmacokinetic parameters were calculated. The pharmacokinetic behavior in mice after the compound administration was described by means of non-compartment model statistical moment parameters.

[6] = test system: human lung adenocarcinoma NCI-H441 cells; assay: In vitro inhibitory effect on the proliferation of NCI-H441 cells (3D CellTiter Glo, 5 days); format: cell-based; conditions: 120 h, 3D cell viability
Procedure: The human lung adenocarcinoma cell NCI-H441 used in the assay was purchased from ATCC. The complete culture medium required for cell culture was RPMI 1640 Medium (GIBCO Company), which was supplemented with 10% fetal bovine serum (GIBCO Company). Cells were cultured in a 37° C., 5% CO2 incubator. The reagents used in the assay included dimethyl sulfoxide (purchased from Sigma), a 3D Cell Viability assay kit (purchased from Promega), and the control substance TW-45 used in the assay was obtained homemade. The test substance was sealed and stored at 4° C.
Dimethyl sulfoxide was used as the solvent to fully dissolve the test substance and prepare a stock solution with a concentration of 1×10^−2 mol/L. The stock solution was stored at −20° C. A complete culture medium was used as the diluent, and the test substance was diluted to different concentrations in gradient for later use (the final test concentration was 10000, 3333, 1111, 370, 123, 41, 13.7, 4.5, 1.5, and 0.5 nM). Cells were cultured in a 37° C., 5% CO2 incubator for 5 days. Detection was made on the fifth day. 30 μL of reagent (Celltiter Glo Assay Kit-3D) was added to each well and the plate was shaken on a plate oscillator (protected from light) for 30 minutes. The plate was incubated at room temperature (protected from light) for 120 minutes. Chemiluminescence values were recorded with a Multiplate reader. […]

[7] = mouse, po, intragastric, 20 mg/kg, plasma

Sequence of SHP2 (Q06124 whole entry): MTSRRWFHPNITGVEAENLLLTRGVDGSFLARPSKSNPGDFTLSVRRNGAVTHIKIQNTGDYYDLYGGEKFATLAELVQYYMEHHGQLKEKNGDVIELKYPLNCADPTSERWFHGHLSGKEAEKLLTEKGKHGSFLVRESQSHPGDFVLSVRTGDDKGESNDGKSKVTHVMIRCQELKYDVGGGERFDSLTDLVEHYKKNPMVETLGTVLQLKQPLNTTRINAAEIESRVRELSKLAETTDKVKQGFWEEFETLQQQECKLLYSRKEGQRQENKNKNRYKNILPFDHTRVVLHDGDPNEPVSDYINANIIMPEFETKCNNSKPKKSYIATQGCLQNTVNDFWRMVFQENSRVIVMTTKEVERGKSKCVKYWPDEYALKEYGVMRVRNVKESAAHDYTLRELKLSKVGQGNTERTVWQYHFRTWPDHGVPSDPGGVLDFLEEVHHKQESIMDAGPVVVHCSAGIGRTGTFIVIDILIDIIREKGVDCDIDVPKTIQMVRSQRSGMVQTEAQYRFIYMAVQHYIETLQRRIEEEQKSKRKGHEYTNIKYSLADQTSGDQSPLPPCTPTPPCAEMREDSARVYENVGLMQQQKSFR

Structure (SMILES)	IC50 [1]	IC50 [2]	other results
[2H][C@@]1(N)c2ccccc2OC12CCN(c1nc(N)c(Sc3cccc(-c4ncco4)c3Cl)nc1C(C)=O)CC2 [Compound 60]	≤ 20 nM		
COC(=O)c1nc(Sc2cccc(-c3ccn(C)n3)c2Cl)cnc1N1CCC2(CC1)Cc1ccccc1[C@H]2N [Compound 19]		≤ 20 nM	
Nc1nc(N2CCC3(CC2)Oc2ccccc2[C@H]3N)c(C2COC2)nc1Sc1cccc(-c2ncco2)c1Cl [Compound 21, (R)-1′-(6-amino-5-((2-chloro-3-(oxazole-2-yl)phenyl)sulfanyl)-3-(oxetane-3-yl)pyrazine-2-yl)-3H-spiro[benzofuran-2,4′-piperidine]-3-amine]	≤ 20 nM		
Nc1nc(N2CCC3(CC2)Oc2ccccc2[C@H]3N)cnc1Sc1ccnc(N)c1Cl [TW-45, reference compound]			days of administration after which death appeared ([3]; 200 mg/kg once daily): 4 days; death by the 7th day (in words) ([3]; 200 mg/kg once daily): all animals of the positive control had died by the 7th day; MTD at 7 days ([3]; mouse, in vivo, once daily for 7 days, read-out: mouse maximum tolerated dose MTD): < 200 mg/kg
COC(=O)c1nc(Sc2ccnc(N)c2Cl)c(N)nc1N1CCC2(CC1)Oc1ccccc1[C@H]2N [Compound 58]	≤ 20 nM		
COC(=O)c1nc(Sc2cccc(-c3ncco3)c2Cl)c(N)nc1N1CCC2(CC1)Oc1ccccc1[C@H]2N [Compound 16, (R)-5-amino-3-(3-amino-3H-spiro[benzofuran-2,4′-piperidine]-1′-yl)-6-((2-chloro-3-(oxazole-2-yl)phenyl)sulfanyl)pyrazine-2-carboxylic acid methyl ester]	≤ 20 nM	≤ 20 nM	
[2H][C@@]1(N)c2ccccc2OC12CCN(c1nc(N)c(Sc3ccnc(N)c3Cl)nc1C(=O)OC)CC2 [Compound 59]	≤ 20 nM	≤ 20 nM	
C=Cc1nc(Sc2cccc(-c3ncco3)c2Cl)c(N)nc1N1CCC2(CC1)Oc1ccccc1[C@H]2N [Compound 22]	≤ 20 nM		
Nc1nc(N2CCC3(CC2)Oc2ccccc2[C@H]3N)c(F)nc1Sc1cccc(-c2ncco2)c1Cl [Compound 23, (R)-1′-(6-amino-5-((2-chloro-3-(oxazole-2-yl)phenyl)sulfanyl)-3-fluoropyrazine-2-yl)-3H-spiro[benzofuran-2,4′-piperidine]-3-amine]	≤ 20 nM		
CC(=O)c1nc(Sc2ccnc(-c3ncco3)n2)c(N)nc1N1CCC2(CC1)Oc1ccccc1[C@H]2N [Compound 24, (R)-1-(5-amino-3-(3-amino-3H-spiro[benzofuran-2,4′-piperidine]-1′-yl)-6-((2-(oxazole-2-yl)pyrimidine-4-yl)sulfanyl)pyrazine-2-yl)ethanone]	≤ 20 nM		
[2H][C@@]1(N)c2ccccc2OC12CCN(c1nc(N)c(Sc3ccnc(N)n3)nc1C(C)=O)CC2 [Compound 57]	≤ 20 nM	≤ 20 nM	
CC(=O)c1nc(Sc2cccc(-c3ncco3)c2Cl)c(N)nc1N1CCC2(CC1)Oc1ccccc1[C@H]2N [Compound 1, (R)-1-(5-amino-3-(3-amino-3H-spiro[benzofuran-2,4′-piperidine]-1′-yl)-6-((2-chloro-3-(oxazole-2-yl)phenyl)sulfanyl)pyrazine-2-yl)ethanone]	≤ 20 nM	≤ 20 nM	IC50 ([4]; CHO-K1 stable cell line, hERG tail current, 5 concentrations): > 10000 nM; inhibitory effect on the hERG channel (in words) ([4]; within the detection concentration range of the assay): no obvious inhibitory effect on the hERG channel; exposure and absorption in mice (in words) ([5]; intragastric administration): relatively high exposure in mice and both were well absorbed in vivo; Cmax [5, 7]: 2490 ng/mL; Tmax [5, 7]: 4 h; AUC(0-t) ([5]; mouse, po, intragastric, 20 mg/kg, plasma, read-out: AUC0-24 h): 16900 ng·h/mL
CC(=O)c1nc(Sc2cccc(-c3ncco3)c2Cl)cnc1N1CCC2(CC1)Oc1ccccc1[C@H]2N [Compound 8]	≤ 20 nM	≤ 20 nM	
CC(=O)c1nc(Sc2ccnc(N)c2Cl)c(N)nc1N1CCC2(CC1)Oc1ccccc1[C@H]2N [Compound 62]	≤ 20 nM		IC50 [6]: 20 to 50 nM
